Assay results published in ChEMBL document CHEMBL4359888, “Discovery of aryl-substituted indole and indoline derivatives as RORγt agonists” (Eur J Med Chem, 2019).
≈ marks a conversion by molar mass, not a printed value.

Legend:
[1] = target: T1, Nuclear receptor ROR-gamma (Homo sapiens, UniProt P51449); test: Agonist activity at APC-labeled biotinylated RORgammaT LBD (unknown origin) assessed as induction of biotinylated SRC-1 peptide recruitment incubated for 1 hr by dual FRET assay
T1 sequence (P51449 whole entry): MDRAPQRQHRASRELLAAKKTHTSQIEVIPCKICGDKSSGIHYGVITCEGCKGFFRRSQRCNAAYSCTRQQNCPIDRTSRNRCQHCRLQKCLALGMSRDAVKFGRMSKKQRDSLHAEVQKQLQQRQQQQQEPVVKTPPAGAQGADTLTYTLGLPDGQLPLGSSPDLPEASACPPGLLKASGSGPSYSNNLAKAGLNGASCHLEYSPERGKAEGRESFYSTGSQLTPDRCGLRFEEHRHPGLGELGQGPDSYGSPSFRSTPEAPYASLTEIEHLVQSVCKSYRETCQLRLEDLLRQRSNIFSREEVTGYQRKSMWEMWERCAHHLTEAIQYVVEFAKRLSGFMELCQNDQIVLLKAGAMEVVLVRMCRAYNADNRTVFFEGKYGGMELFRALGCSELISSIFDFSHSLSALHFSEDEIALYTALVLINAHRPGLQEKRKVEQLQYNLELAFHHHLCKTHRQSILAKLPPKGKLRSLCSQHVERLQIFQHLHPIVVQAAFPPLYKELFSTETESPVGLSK

[2] = Metabolic stability in mouse liver microsomes assessed as half life of compound at 1 uM and measured for 60 mins in presence of NADPH by HPLC-MS/MS analysis; type: ADME, Microsome
[3] = target: T1, Nuclear receptor ROR-gamma; test: Transactivation of human GAL4-fused RORgammaT LBD expressed in human HEK293T cells incubated for 16 to 20 hrs by steady-glo luciferase assay; type: cell-based
physchem = conditions: phosphate buffer, pH 7.46
in vitro = conditions: mouse, liver microsomes
[4] = Cmax in CD-1 mouse at 1 mg/kg, iv measured for 24 hrs by LC-MS/MS analysis; type: ADME, organism-based; parameters: dose 1 mg/kg, route intravenous; conditions: in vivo
[5] = AUC (0 to last) in CD-1 mouse at 1 mg/kg, iv measured for 24 hrs by LC-MS/MS analysis; type: ADME, organism-based; parameters: dose 1 mg/kg, route intravenous, time 0 - last; conditions: in vivo
[6] = Volume of distribution at steady state in CD-1 mouse at 1 mg/kg, iv measured for 24 hrs by LC-MS/MS analysis; type: ADME, organism-based; conditions: in vivo, read-out: Vdss
[7] = Half life in CD-1 mouse at 1 mg/kg, iv measured for 24 hrs by LC-MS/MS analysis; type: ADME, organism-based; conditions: in vivo
[8] = Clearance in CD-1 mouse at 1 mg/kg, iv measured for 24 hrs by LC-MS/MS analysis; type: ADME, organism-based; conditions: in vivo
[9] = Cmax in CD-1 mouse at 5 mg/kg, po measured for 24 hrs by LC-MS/MS analysis; type: ADME, organism-based; parameters: dose 5 mg/kg, route oral; conditions: in vivo
[10] = AUC (0 to last) in CD-1 mouse at 5 mg/kg, po measured for 24 hrs by LC-MS/MS analysis; type: ADME, organism-based; parameters: dose 5 mg/kg, route oral, time 0 - last; conditions: in vivo
[11] = Half life in CD-1 mouse at 5 mg/kg, po measured for 24 hrs by LC-MS/MS analysis; type: ADME, organism-based; conditions: in vivo
[12] = Oral bioavailability in CD-1 mouse at 5 mg/kg measured for 24 hrs by LC-MS/MS analysis; type: ADME, organism-based; conditions: in vivo

| Structure (SMILES) | EC50 [1] [µM] | half-life at 1 µM [2] [min] | further results |
| --- | --- | --- | --- |
| O=C(O)CC1Cc2ccc(-c3cccc(OC(F)(F)F)c3)cc2N1S(=O)(=O)c1cccc(C(F)(F)F)c1 (stereo not drawn) | 0.0311 |  |  |
| O=C(O)CC1CN(S(=O)(=O)c2cccc(C(F)(F)F)c2)c2cc(-c3cc(F)cc(OC(F)F)c3)ccc21 (stereo not drawn) | 0.0218 | 45.6 |  |
| O=C1CN(C(=O)CC2Cc3ccc(-c4cc(F)cc(OC(F)F)c4)cc3N2S(=O)(=O)c2cccc(C(F)(F)F)c2)C1 (stereo not drawn) | 0.0788 |  |  |
| O=C(CC1Cc2ccc(-c3cc(F)cc(OC(F)F)c3)cc2N1S(=O)(=O)c1cccc(C(F)(F)F)c1)N1CC2(COC2)C1 (stereo not drawn) | 0.0479 | 0.7 | EC50 [3]: 0.752 µM |
| O=C(O)CC1Cc2ccc(-c3cc(F)cc(C(F)(F)F)c3)cc2N1S(=O)(=O)c1cccc(C(F)(F)F)c1 (stereo not drawn) | 0.0413 |  |  |
| COC(=O)C1=C(C)NC(C)=C(C(=O)OCCN(C)Cc2ccccc2)C1c1cccc([N+](=O)[O-])c1 (stereo not drawn) [NICARDIPINE] |  |  | solubility kinetic at 2 h, 100 µM (physchem): 5.01 µM (≈ 2.4 µg/mL) |
| CC(C)(C[C@H]1CN(S(=O)(=O)c2cccc(C(F)(F)F)c2)c2cc(-c3cc(F)cc(OC(F)F)c3)ccc2O1)C(=O)O [CINTIRORGON] |  |  | solubility kinetic at 2 h, 100 µM (physchem): 37.5 µM (≈ 22.6 µg/mL) |
| O=S(=O)(c1cccc(C(F)(F)F)c1)N1CCc2ccc(OCc3c(F)cccc3Cl)cc21 | 0.0302 | 2.9 | microsomal CLint at 1 h, 1 µM (in vitro): 482 µL/min/mg; solubility kinetic at 2 h, 100 µM (physchem): 0.08 µM (≈ 0.0389 µg/mL) |
| O=C(O)CC1Cc2ccc(-c3ccc4c(c3)OCO4)cc2N1S(=O)(=O)c1cccc(C(F)(F)F)c1 (stereo not drawn) | 0.0874 |  |  |
| O=C(O)C1CN(C(=O)CC2Cc3ccc(-c4cc(F)cc(OC(F)F)c4)cc3N2S(=O)(=O)c2cccc(C(F)(F)F)c2)C1 (stereo not drawn) | 0.0493 | 65.9 | EC50 [3]: 4.05 µM |
| O=C(O)CC1Cc2ccc(-c3ccc4c(c3)OC(F)(F)O4)cc2N1S(=O)(=O)c1cccc(C(F)(F)F)c1 (stereo not drawn) | 0.0426 |  |  |
| O=C(O)CCCc1cc2ccc(-c3cc(F)cc(OC(F)F)c3)cc2n1S(=O)(=O)c1cccc(C(F)(F)F)c1 | 0.0453 |  |  |
| O=C(O)CC1Cc2ccc(-c3cc(F)cc(F)c3)cc2N1S(=O)(=O)c1cccc(C(F)(F)F)c1 (stereo not drawn) | 0.0257 |  |  |
| O=C(O)C[C@H]1Cc2ccc(-c3cc(F)cc(OC(F)F)c3)cc2N1S(=O)(=O)c1cccc(C(F)(F)F)c1 | 0.286 |  |  |
| O=S(=O)(c1cccc(C(F)(F)F)c1)n1ncc2ccc(-c3cc(F)cc(OC(F)F)c3)cc21 | 0.205 |  |  |
| O=C(O)CCCC1CN(S(=O)(=O)c2cccc(C(F)(F)F)c2)c2cc(-c3cc(F)cc(OC(F)F)c3)ccc21 (stereo not drawn) | 0.0262 | 34.2 |  |
| O=C(O)CCCc1cn(S(=O)(=O)c2cccc(C(F)(F)F)c2)c2cc(-c3cc(F)cc(OC(F)F)c3)ccc12 | 0.0938 |  |  |
| CC(=O)N1CCN(c2ccc(OCC3COC(Cn4ccnc4)(c4ccc(Cl)cc4Cl)O3)cc2)CC1 (stereo not drawn) [KETOCONAZOLE] |  |  | solubility kinetic at 2 h, 100 µM (physchem): 31.1 µM (≈ 16.5 µg/mL) |
| O=C(O)CCCC1Cc2ccc(-c3cc(F)cc(OC(F)F)c3)cc2N1S(=O)(=O)c1cccc(C(F)(F)F)c1 (stereo not drawn) | 0.0252 | 93.3 | EC50 [3]: 0.422 µM |
| O=C1CCN(C(=O)CC2Cc3ccc(-c4cc(F)cc(OC(F)F)c4)cc3N2S(=O)(=O)c2cccc(C(F)(F)F)c2)C1 (stereo not drawn) | 0.0523 |  |  |
| CC(C)Oc1cc(F)cc(-c2ccc3c(c2)N(S(=O)(=O)c2cccc(C(F)(F)F)c2)C(CC(=O)O)C3)c1 (stereo not drawn) | 0.124 |  |  |
| O=C(CC1Cc2ccc(-c3cc(F)cc(OC(F)F)c3)cc2N1S(=O)(=O)c1cccc(C(F)(F)F)c1)N1CCOCC1 (stereo not drawn) | 0.209 |  |  |

| Structure (SMILES) | EC50 [1] [µM] | half-life at 1 µM [2] [min] | further results |
| --- | --- | --- | --- |
| CCOc1cc(F)cc(-c2ccc3c(c2)N(S(=O)(=O)c2cccc(C(F)(F)F)c2)C(CC(=O)O)C3)c1 (stereo not drawn) | 0.0329 |  |  |
| O=C(O)CC1Cc2ccc(-c3cc(F)cc(OC(F)F)c3)cc2N1S(=O)(=O)c1cccc(C(F)(F)F)c1 (racemic) | 0.0208 | 113 | EC50 [3]: 0.247 µM; Cmax [4]: 1.64 µg/mL; AUC(0-t) at 24 h [5]: 1.71 µg·h/mL; Vd [6]: 2.09 L/kg; half-life [7]: 295 min; clearance [8]: 0.573 L/h/kg; Cmax [9]: 1.4 µg/mL; AUC(0-t) at 24 h [10]: 9.12 µg·h/mL; half-life [11]: 249 min; bioavailability [12]: 107%; microsomal CLint at 1 h, 1 µM (in vitro): 12.3 µL/min/mg; solubility kinetic at 2 h, 100 µM (physchem): 69.4 µM (≈ 37.9 µg/mL) |
| O=C(O)C[C@@H]1Cc2ccc(-c3cc(F)cc(OC(F)F)c3)cc2N1S(=O)(=O)c1cccc(C(F)(F)F)c1 | 0.0161 |  | EC50 [3]: 0.201 µM |
| O=C(O)CCC1CN(S(=O)(=O)c2cccc(C(F)(F)F)c2)c2cc(-c3cc(F)cc(OC(F)F)c3)ccc21 (stereo not drawn) | 0.0146 | 24.5 |  |
| O=C(O)Cc1cc2ccc(-c3cc(F)cc(OC(F)F)c3)cc2n1S(=O)(=O)c1cccc(C(F)(F)F)c1 | 0.125 |  |  |
| O=C(CC1Cc2ccc(-c3cc(F)cc(OC(F)F)c3)cc2N1S(=O)(=O)c1cccc(C(F)(F)F)c1)N1CCC(O)CC1 (stereo not drawn) | 0.106 | 0.7 | EC50 [3]: 6.04 µM |
| O=C(O)CCc1cn(S(=O)(=O)c2cccc(C(F)(F)F)c2)c2cc(-c3cc(F)cc(OC(F)F)c3)ccc12 | 0.0436 |  |  |
| COc1cc(F)cc(-c2ccc3c(c2)N(S(=O)(=O)c2cccc(C(F)(F)F)c2)C(CC(=O)O)C3)c1 (stereo not drawn) | 0.0393 |  |  |
| O=S(=O)(c1cccc(C(F)(F)F)c1)n1cnc2ccc(-c3cc(F)cc(OC(F)F)c3)cc21 | 0.122 |  |  |
| O=C(CC1Cc2ccc(-c3cc(F)cc(OC(F)F)c3)cc2N1S(=O)(=O)c1cccc(C(F)(F)F)c1)N1CC(O)C1 (stereo not drawn) | 0.244 |  |  |
| O=C(CC1Cc2ccc(-c3cc(F)cc(OC(F)F)c3)cc2N1S(=O)(=O)c1cccc(C(F)(F)F)c1)N1CCS(=O)(=O)CC1 (stereo not drawn) | 0.0434 | 2 | EC50 [3]: 0.322 µM |
| O=C(O)CCc1cc2ccc(-c3cc(F)cc(OC(F)F)c3)cc2n1S(=O)(=O)c1cccc(C(F)(F)F)c1 | 0.0255 | > 145 | EC50 [3]: 1.71 µM |
| O=C1CCN(C(=O)CC2Cc3ccc(-c4cc(F)cc(OC(F)F)c4)cc3N2S(=O)(=O)c2cccc(C(F)(F)F)c2)CC1 (stereo not drawn) | 0.0804 |  |  |
| O=C(O)C1CCN(C(=O)CC2Cc3ccc(-c4cc(F)cc(OC(F)F)c4)cc3N2S(=O)(=O)c2cccc(C(F)(F)F)c2)CC1 (stereo not drawn) | 0.0571 | 30.1 | EC50 [3]: 5.44 µM |
| O=S(=O)(c1cccc(C(F)(F)F)c1)n1ccc2ccc(-c3cc(F)cc(OC(F)F)c3)cc21 | 0.0994 | 39.1 |  |
| O=C(O)CC1Cc2ccc(-c3ccc4c(c3)CCO4)cc2N1S(=O)(=O)c1cccc(C(F)(F)F)c1 (stereo not drawn) | 0.0568 |  |  |
| O=C(O)CCC1Cc2ccc(-c3cc(F)cc(OC(F)F)c3)cc2N1S(=O)(=O)c1cccc(C(F)(F)F)c1 (stereo not drawn) | 0.0313 | 60.9 | EC50 [3]: 2.32 µM |
| O=C(O)CC1Cc2ccc(-c3cc(F)cc(Cl)c3)cc2N1S(=O)(=O)c1cccc(C(F)(F)F)c1 (stereo not drawn) | 0.042 |  |  |
| O=C(O)c1cc2ccc(-c3cc(F)cc(OC(F)F)c3)cc2n1S(=O)(=O)c1cccc(C(F)(F)F)c1 | 0.0743 |  |  |
| O=S(=O)(c1cccc(C(F)(F)F)c1)N1CCc2ccc(-c3cc(F)cc(OC(F)F)c3)cc21 | 0.0506 | 11.4 | microsomal CLint at 1 h, 1 µM (in vitro): 121 µL/min/mg; solubility kinetic at 2 h, 100 µM (physchem): 1.48 µM (≈ 0.721 µg/mL) |
| O=C(O)Cc1cn(S(=O)(=O)c2cccc(C(F)(F)F)c2)c2cc(-c3cc(F)cc(OC(F)F)c3)ccc12 | 0.133 |  |  |
